Source: patent US6239130A, “Phosphodiesterase 4-inhibiting diazepinoindolones” (Warner-Lambert Company, priority 1997, dated 2001)

System: PDE4 enzyme of human origin
Test: PDE4-inhibiting activity on an enzyme preparation obtained from the U937 cell line
Format: biochemical
Description: In the case of the PDE4 enzymes, this value is compared with that of rolipram, a specific PDE4 inhibitor. […] Measurement of the enzyme activity of the different types of PDE, and especially of the PDE4 enzymes, is then carried out according to a method adapted from W. J. Thompson, ibidem.

| SMILES | IC50 [nM] |
| --- | --- |
| Cc1cc2c3c(c1)C(c1ccccc1)=NC(n1cnc4ccccc4c1=O)C(=O)N3CC2 (stereo not shown) [Example 18, 3(9-Methyl-3-oxo-4H-quinazolin-3-yl)-1-phenyl-6,7-dihydro-3H-[1,4]diazepino[6,7,1-hi]indol-4one] | 823 |
| Cc1cc2c3c(c1)C(c1ccccc1)=N[C@@H](n1c(C)nc4cnccc4c1=O)C(=O)N3CC2 [Example 19, (3S)-3-(2-Methyl-4-oxo-4H-pyrido[3,4-d]-pyrimidin-3-yl)-9-methyl-1-phenyl-6,7-dihydro-3H-[1,4]diazepino[6,7,1-hi]indol-1-one] | 193 |
| Cc1ccc2nc(C)n(C3N=C(c4ccccc4)c4cc([N+](=O)[O-])cc5c4N(CC5)C3=O)c(=O)c2c1 (stereo not shown) [Example 22, 3-(2,6-Dimethyl-4-oxo-4H-quinazolin-3-yl)-9-nitro-1-phenyl-6,7-dihydro-3H-[1,4]diazepino-[6,7,1-hi]indol-4-one] | 1730 |
| Cc1ccc2c(=O)n(C3N=C(c4ccccc4)c4cc([N+](=O)[O-])cc5c4N(CC5)C3=O)c(C)nc2c1 (stereo not shown) [Example 23, 3-(2,7-Dimethyl-4-oxo-4H-quinazolin-3-yl)-9-nitro-1-phenyl-6,7-dihydro-3H-[1,4]diazepino-[6,7,1-hi]indol-4-one] | 497 |
| Cc1cccc2c(=O)n(C3N=C(c4ccccc4)c4cc([N+](=O)[O-])cc5c4N(CC5)C3=O)c(C)nc12 (stereo not shown) [Example 24, 3-(2,8-Dimethyl-4-oxo-4H-quinazolin-3-yl)-9-nitro-1-phenyl-6,7-dihydro-3H-[1,4]diazepino-[6,7,1-hi]indol-4-one] | 30600 |
| Cc1cc(C)c2nc(C)n(C3N=C(c4ccccc4)c4cc([N+](=O)[O-])cc5c4N(CC5)C3=O)c(=O)c2c1 (stereo not shown) [Example 25, 3(2,6,8-Trimethyl-4-oxo-4H-quinazolin-3-yl)-9-nitro-1-phenyl-6,7-dihydro-3H-[1,4]diazepino[6,7,1-hi]indol-4-one] | > 100000 |
| Cc1cc(Br)c2nc(C)n(C3N=C(c4ccccc4)c4cc([N+](=O)[O-])cc5c4N(CC5)C3=O)c(=O)c2c1 (stereo not shown) [Example 26, 3-(8-Bromo-2,6-dimethyl-4-oxo-4H-quinazolin-3-yl)-9-nitro-1-phenyl-6,7-dihydro-3H-[1,4]diazepino-[6,7,1-hi]indol-4-one] | 90600 |
| Cc1nc2ccccc2c(=O)n1[C@@H]1N=C(c2ccccc2)c2cc(N)cc3c2N(CC3)C1=O [Example 28, (3S)-9-Amino-3-(2-methyl-4oxo-4H-quinazolin-3-yl)-1-phenyl-6,7-dihydro-3H-[1,4]diazepino[6,7,1-hi]indol-4-one] | 5 |
| COC(=O)c1ccc2c(=O)n(C3N=C(c4ccccc4)c4cc(N)cc5c4N(CC5)C3=O)c(C)nc2c1 (stereo not shown) [Example 28A, Methyl 3-(9-amino-4-oxo-1-phenyl-3,4,6,7-tetrahydro-[1,4]diazepino[6,7,1-hi]indol-3-yl)-2-methyl-4-oxo-3,4-dihydroquinazoline-7-carboxylate] | 5 |
| COC(=O)c1ccc2c(=O)n(C3N=C(c4ccccc4)c4cc(N)cc5c4N(CC5)C3=O)c(C)nc2c1 (stereo not shown) [Example 28B] | 3 |
| COC(=O)c1ccc2c(=O)n(C3N=C(c4ccccc4)c4cc(N)cc5c4N(CC5)C3=O)c(C)nc2c1 (stereo not shown) [Example 28C] | 70 |
| Cc1nc2cc(C(=O)O)ccc2c(=O)n1C1N=C(c2ccccc2)c2cc(N)cc3c2N(CC3)C1=O (stereo not shown) [Example 28D, 3-(9-Amino-4oxo-1-phenyl-3,4,6,7-tetrahydro[1,4]diazepino[6,7,1-hi]indol-3-yl)-2-methyl-4-oxo-3,4-dihydroquinazoline-7-carboxylic acid] | 9 |
| Cc1nc2ccccc2c(=O)n1C1N=C(c2ccccc2)c2cc(N)cc3c2N(CC3)C1=O (stereo not shown) [Example 29, 9-Amino-3-(2-methyl-4-oxo-4H-quinazolin-3-yl)-1-phenyl-6,7-dihydro-3H-[1,4]diazepino[6,7,1-hi]indol-4-one] | 13 |
| Cc1cccc2nc(C)n(C3N=C(c4ccccc4)c4cc(N)cc5c4N(CC5)C3=O)c(=O)c12 (stereo not shown) [Example 30, 9-Amino-3-(2,5-dimethyl-4-oxo-4H-quinazolin-3-yl)-1-phenyl-6,7-dihydro-3H-[1,4]diazepino[6,7,1-hi]indol-4-one] | 8 |
| Cc1ccc2nc(C)n(C3N=C(c4ccccc4)c4cc(N)cc5c4N(CC5)C3=O)c(=O)c2c1 (stereo not shown) [Example 31, 9-Amino-3-(2,6dimethyl-4-oxo-4H-quinazolin-^3-yl)-1-phenyl-6,7-dihydro-3H-[1,4]diazepino[6,7,1-hi]indol-4-one] | 87 |
| Cc1cccc2c(=O)n(C3N=C(c4ccccc4)c4cc(N)cc5c4N(CC5)C3=O)c(C)nc12 (stereo not shown) [Example 32, 9-Amino-3-(2,8-dimethyl-4-oxo-4H-quinazolin-3-yl)-l1-phenyl-6,7-dihydro-3H-[1,4]diazepino[6,7,1-hi]indole-4-one] | 55 |

| SMILES | IC50 [nM] |
| --- | --- |
| Cc1cc(C)c2nc(C)n(C3N=C(c4ccccc4)c4cc(N)cc5c4N(CC5)C3=O)c(=O)c2c1 (stereo not shown) [Example 33, 9-Amino-3-(2,6,8-trimethyl-4-oxo-4H-quinazolin-3-yl)-1-phenyl-6,7-dihydro-3H-[1,4]diazepino[6,7,1-hi]indol-4-one] | 155 |
| Cc1nc2cnccc2c(=O)n1C1N=C(c2ccccc2)c2cc(N)cc3c2N(CC3)C1=O (stereo not shown) [Example 34, 9-Amino-3-(2-methyl-4-oxo-4H-pyrido[3,4-d]pyrimidin-3-yl)-1-phenyl-6,7-dihydro-3H-[1,4]diazepino[6,7,1-hi]indol-4-one] | 42 |
| Cc1nc2cccc(Cl)c2c(=O)n1C1N=C(c2ccccc2)c2cc(N)cc3c2N(CC3)C1=O (stereo not shown) [Example 34B, 9-Amino-3-(5-chloro-2-methyl-4-oxo-4H-quinazolin-3-yl)-1-phenyl-6,7-dihydro-3H-[1,4]diazepino[6,7,1-hi]indol-4-one] | 3 |
| Cc1cc2c3c(c1)C(c1ccccc1)=NC(n1c(C)nc4cc(C(=O)N[C@H](C(=O)O)C(C)C)ccc4c1=O)C(=O)N3CC2 (stereo partly shown) [Example 35, N-(2-methyl-3-(9-methyl-4-oxo-1-phenyl-3,4,6,7-tetrahydro[1,4]diazepino[6,7,1-hi]indol-3-yl)-4-oxo-3,4-dihydroquinazoline-7-carbonyl)valine] | 106 |
| Cc1cc2c3c(c1)C(c1ccccc1)=NC(n1c(C)nc4cc(C(=O)N[C@@H](Cc5ccc(O)cc5)C(=O)O)ccc4c1=O)C(=O)N3CC2 (stereo partly shown) [Example 35A, N-(2-Methyl-3-(9-methyl-4-oxo-1-phenyl-3,4,6,7-tetrahydro[1,4]diazepino[6,7,1-hi]indol-3-yl)-4-oxo-3,4-dihydroquinazoline-7-carboxyl)tyrosine] | 88 |
| Cc1cc2c3c(c1)C(c1ccccc1)=NC(n1c(C)nc4cc(C(=O)N[C@@H](C)C(=O)O)ccc4c1=O)C(=O)N3CC2 (stereo partly shown) [Example 35B] | 190 |
| Cc1cc2c3c(c1)C(c1ccccc1)=NC(n1c(C)nc4cc(C(=O)N[C@@H](Cc5ccccc5)C(=O)O)ccc4c1=O)C(=O)N3CC2 (stereo partly shown) [Example 35C, N-(2-Methyl-3-(9-methyl-4-oxo-1-phenyl-3,4,6,7-tetrahydrol[1,4]diazepino[6,7,1-hi]indol-3-yl)-4-oxo-3,4-dihydroquinazoline-7-carboxyl)phenylalanine] | 111 |
| Cc1cc2c3c(c1)C(c1ccccc1)=NC(n1c(C)nc4cc(C(=O)NCC(=O)O)ccc4c1=O)C(=O)N3CC2 (stereo not shown) [Example 35D, N-(2-Methyl-3-(9-methyl-4-oxo-1-phenyl-3,4,6,7-tetrahydro[1,4]diazepino[6,7,1-hi]indol-3-yl)-4-oxo-3,4-dihydroquinazoline-7-carboxyl)glycine] | 65 |
| Cc1cc2c3c(c1)C(c1ccccc1)=NC(n1c(C)nc4cc(C(=O)N[C@@H](CC(C)C)C(=O)O)ccc4c1=O)C(=O)N3CC2 (stereo partly shown) [Example 35E, N-(2-Methyl-3-(9-methyl-4-oxo-1-phenyl-3,4,6,7-tetrahydro[1,4]diazepino[6,7,1-hi]indol-3-yl)-4-oxo-3,4-dihydroquinazoline-7-carboxyl)leucine] | 82 |
| Cc1cc2c3c(c1)C(c1ccccc1)=NC(n1c(C)nc4cc(C(=O)N[C@@H](CC(=O)O)C(=O)O)ccc4c1=O)C(=O)N3CC2 (stereo partly shown) [Example 35F, N-(2-Methyl-3-(9-methyl-4-oxo-1-phenyl-3,4,6,7-tetrahydro[1,4]diazepino[6,7,1-hi]indol-3-yl)-4-oxo-3,4-dihydroquinazoline-7-carboxyl)aspartic acid] | 547 |
| Cc1cc2c3c(c1)C(c1ccccc1)=NC(n1c(C)nc4cc(C(=O)N5CCC[C@H]5C(=O)O)ccc4c1=O)C(=O)N3CC2 (stereo partly shown) [Example 35G, N-(2-Methyl-3-(9-methyl-4-oxo-1-phenyl-3,4,6,7-tetrahydro[1,4]diazepino[6,7,1-hi]indol-3-yl)-4-oxo-3,4-dihydroquinazoline-7-carboxyl)proline] | 291 |
| Cc1cc2c3c(c1)C(c1ccccc1)=NC(n1c(C)nc4cc(C(=O)N[C@@H](CCC(=O)O)C(=O)O)ccc4c1=O)C(=O)N3CC2 (stereo partly shown) [Example 35H, N-(2-Methyl-3-(9-methyl-4-oxo-1-phenyl-3,4,6,7-tetrahydro[1,4]diazepino[6,7,1-hi]indol-3-yl)-4-oxo-3,4-dihydroquinazoline-7-carboxyl)glutamic acid] | 219 |
| Cc1cc2c3c(c1)C(c1ccccc1)=NC(n1c(C)nc4cc(C(=O)N[C@@H](CCCCN)C(=O)O)ccc4c1=O)C(=O)N3CC2 (stereo partly shown) [Example 35I] | 120 |
| CCOC(=O)[C@H](Cc1ccccc1)NC(=O)c1ccc2c(=O)n(C3N=C(c4ccccc4)c4cc(C)cc5c4N(CC5)C3=O)c(C)nc2c1 (stereo partly shown) [Example 36, Ethyl 2-{[2-methyl-3-(9-methyl-4-oxo-1-phenyl-3,4,6,7-tetrahydro[1,4]diazepino[6,7,1-hi]indol-3-yl)-4-oxo-3,4-dihydroquinazolin0e-7-carbonyl]amino}-3-phenyl-(L)-propionate] | 312 |
| COc1ccc(C2CNC(=O)C2)cc1OC1CCCC1 (stereo not shown) [rolipram, reference compound] | 792 |
